Data reported in the NIST ThermoML archive (doi:10.1016/j.fluid.2006.10.004).
Numbers after ± are expanded uncertainties.

Columns and labels:
[1] = 293.15 K; 101.33 kPa; Liquid
[2] = refractive index (Na D-line) (dimensionless); conditions: 293.15 K; 101.33 kPa; Liquid; Standard Abbe refractometry

mass density [1]	refractive index [2]	SMILES
804.8 ± 1.3 kg/m3	1.4155 ± 0.0008	CC(C)CC(=O)CC(C)C [2,6-dimethyl-4-heptanone]
822.7 ± 1.2 kg/m3	1.4194 ± 0.0008	CCC(=O)CCC(C)C [6-methyl-3-heptanone]
992.7 ± 0.6 kg/m3	1.3811 ± 0.0008	CCC(=O)O [propanoic acid]
887.5 ± 1 kg/m3	1.4074 ± 0.0008	CC(=O)CCC(C)C [5-methyl-2-hexanone]
